Measured values: US8372383B2, “Agent for inducing hair growth containing extracts of saw palmetto and swertia” (Medidermis Ltd, priority 1999, dated 2013)

Tests used:
Mice (males, C3H type) = experiment: Hair growth model in mice in the resting phase of the hair cycle (weight of hair after 18 days of topical application); format: in vivo
Text: Data was objectively assessed by the experiments given hereafter in an already established hair growth model in mice [Inaoka Y, et al. 1994, 42:530-3.], employing treatment versus controls. As a positive control, minoxidil 5% was used. […] The present invention thus fulfills the need for a natural combination of plant extracts and provides the advantages of unanimous use and excellent efficacy. In mice, the hair growth and effluvium are a continuous cyclic process. […] Therefore, any hair growth during this period is non-physiologic and induced by external agents. […] Any research related to this model should employ minoxidil as the “golden standard” and as an essential positive control. Mice (males, C3H type), which were in the resting phase in their hair cycle, i.e. at 7 weeks of age, were employed in these experiments. The skin of the back of the mice was subjected to a complete hair cut by an electric razor, with areas of approximately 2.5×4 cm. Different solutions, as will be further described, (100 μL/day) were applied with a syringe 6 times a week for 18 days, and the skin was further massaged. At the end of the experiment, the animals were sacrificed and the skin of the back was excised. The excised skin was fixed on frame consisting of a metal disc with a radius of 0.9 cm. Hairs were cut by a scalpel, collected and weighted. […] Data was calculated by SigmaStat version 2.0, Jandel.

hair loss [1] = details: at the more effective higher concentrations; cited from earlier work
hair loss [2] = details: after at least one-year daily uptake; 39% hair growth in control group; cited from earlier work

| Structure (SMILES) | Weight Of Hair (Mice (males, C3H type); C3H male mice, 7 weeks old, 100 μL/day topically 6 times a week for 18 days, hair from excised back skin, disc of radius 0.9 cm, control (placebo) 2.52 mg) [mg] | increase of hair weight as compared to control mice (Mice (males, C3H type); C3H mice, topical, 18 days, versus placebo-treated control) | side effects (hair loss [1]) | success (hair growth) (hair loss [2]) [%] |
| --- | --- | --- | --- | --- |
| Nc1cc(N2CCCCC2)nc(N)[n+]1[O-] [Minoxidil 5.0%, minoxidil] | 4.07 | about 65% | may cause hypotension or hypertrichosis | – |
| CC(C)(C)NC(=O)[C@H]1CC[C@H]2[C@@H]3CC[C@H]4NC(=O)C=C[C@]4(C)[C@H]3CC[C@]12C [Finasteride] | – | – | – | 60 |
